Where two headings read alike, the source gives them in different places.
Tests used:
[1] = mice treated with MPTP; cited from earlier work
[2] = mice; preclinical model of anxiety; cited from earlier work
[3] = mice; preclinical model of anxiety; cited from earlier work; remark: listed apart in the source
[4] = cited from earlier work
[5] = target: recombinant human mGlu4 expressed in HEK293 cells (Homo sapiens (Human), UniProt Q14833); assay: Ca2+ mobilization in vitro assay, mGlu4 PAM; assay type: cell-based; conditions: for EC50: HEK293 cells, human mGlu4, with EC20 of L-AP4; for Eff. (%): maximal response in % of maximal stimulatory effect of saturating L-AP4
Description: Determination of EC50 values using a Ca2+ mobilization in vitro assay on recombinant human mGlu4 expressed in HEK293 cells:
A monoclonal HEK-293 cell line stably transfected with a cDNA encoding for the human mGlu4 receptor was generated; for the work with mGlu4 Positive Allosteric Modulators (PAMs), a cell line with low receptor expression levels and low constitutive receptor activity was selected to allow the differentiation of agonistic versus PAM activity. Cells were cultured according to standard protocols (Freshney, 2000) in Dulbecco's Modified Eagle Medium with high glucose supplemented with 1 mM glutamine, 10% (vol/vol) heat-inactivated bovine calf serum, Penicillin/Streptomycin, 50 μg/ml hygromycin and 15 μg/ml blasticidin (all cell culture reagents and antibiotics from Invitrogen, Basel, Switzerland). About 24 hrs before an experiment, 5×10^4 cells/well were seeded in poly-D-lysine coated, black/clear-bottomed 96-well plates. The cells were loaded with 2.5 μM Fluo-4AM in loading buffer (1×HBSS, 20 mM HEPES) for 1 hr at 37° C. and washed five times with loading buffer. The cells were transferred into a Functional Drug Screening System 7000 (Hamamatsu, Paris, France), and 11 half logarithmic serial dilutions of test compound at 37° C. were added and the cells were incubated for 10-30 min. with on-line recording of fluorescence. […] Graphs were plotted with the % maximal stimulatory using XLfit, a curve fitting program that iteratively plots the data using Levenburg Marquardt algorithm. The single site competition analysis equation used was y=A+((B-A)/(1+((x/C)D))), where y is the % maximal stimulatory effect, A is the minimum y, B is the maximum y, C is the EC50, x is the log 10 of the concentration of the competing compound and D is the slope of the curve (the Hill Coefficient).
FIG. 1: Illustration of the experimental outline for mGlu4 PAM Ca2+ mobilization screening assay and the determination of EC50 and % Emax values.

Chain of recombinant human mGlu4 expressed in HEK293 cells (Q14833 33-912): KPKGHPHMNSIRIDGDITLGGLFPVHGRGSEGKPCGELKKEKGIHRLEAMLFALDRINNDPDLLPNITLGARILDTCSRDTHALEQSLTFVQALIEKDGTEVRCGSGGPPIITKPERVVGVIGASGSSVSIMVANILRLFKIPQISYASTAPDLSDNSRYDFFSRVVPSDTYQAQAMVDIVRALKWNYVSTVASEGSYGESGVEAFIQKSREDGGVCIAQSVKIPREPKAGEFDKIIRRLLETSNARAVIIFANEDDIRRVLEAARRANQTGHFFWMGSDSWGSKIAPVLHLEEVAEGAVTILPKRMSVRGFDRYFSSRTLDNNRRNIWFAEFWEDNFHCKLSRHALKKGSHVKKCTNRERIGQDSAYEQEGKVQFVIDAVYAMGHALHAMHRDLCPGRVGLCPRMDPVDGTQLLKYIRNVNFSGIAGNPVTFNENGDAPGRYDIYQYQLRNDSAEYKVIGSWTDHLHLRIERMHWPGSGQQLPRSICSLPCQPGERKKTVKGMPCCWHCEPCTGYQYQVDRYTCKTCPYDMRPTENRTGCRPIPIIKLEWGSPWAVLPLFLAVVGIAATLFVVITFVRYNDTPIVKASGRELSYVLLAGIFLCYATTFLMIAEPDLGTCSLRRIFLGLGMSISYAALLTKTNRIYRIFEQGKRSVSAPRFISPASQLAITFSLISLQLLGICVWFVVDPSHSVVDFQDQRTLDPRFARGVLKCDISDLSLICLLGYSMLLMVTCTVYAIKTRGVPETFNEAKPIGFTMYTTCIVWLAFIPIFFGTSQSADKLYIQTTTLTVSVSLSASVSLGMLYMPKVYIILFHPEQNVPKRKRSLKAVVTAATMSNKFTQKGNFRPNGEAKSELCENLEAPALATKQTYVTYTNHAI

Question: Which nigrostriatal degeneration [1] does the source give for `O=C(Nc1ccccc1)C12CC1/C(=N\O)c1ccccc1O2` (single isomer, unassigned; (-)) [(−)-PHCCC] here?
Answer: reduced nigrostriatal degeneration

Question: For `Cc1ccnc(Nc2nc(-c3cn[nH]c3)c(C)s2)n1` [ADX88178], which “activity in marble burying test” value [2] is on record?
Answer: active

Question: And the “activity in EPM” value [3]?
Answer: active

Question: And the “profile in rat EPM test” value ([4]; rat, after oral dosing)?
Answer: anxiolytic-like profile

Question: What about the “activity in EPM” value ([4]; rats, preclinical model of anxiety) of the same compound?
Answer: active

Question: Which EC50 [5] does the source give for `CCn1cc2c(n1)CCC[C@]21CC(=O)N(c2c(F)cc(C#Cc3ccccc3)cc2F)C(=O)N1C` [Example 1, (4S)-3′-[2,6-Difluoro-4-(2-phenylethynyl)phenyl]-2-ethyl-1′-methyl-spiro[6,7-dihydro-5H-indazole-4,6′-hexahydropyrimidine]-2′,4′-dione] here?
Answer: 77 nM

Question: And the “Eff. (%)” value [5]?
Answer: 132%

Question: Which results are given for `CCn1ncc2c1CCC[C@]21CC(=O)N(c2c(F)cc(C#Cc3ccccc3)cc2F)C(=O)N1C` [Example 2, (4S)-3′-[2,6-Difluoro-4-(2-phenylethynyl)phenyl]-1-ethyl-1′-methyl-spiro[6,7-dihydro-5H-indazole-4,6′-hexahydropyrimidine]-2′,4′-dione]?
Answer: EC50 [5]: 85 nM; Eff. (%) [5]: 136%

Reference: patent US11242349B2, “Ethynyl derivatives” (Hoffmann-La Roche Inc., priority 2016, dated 2022)
